# In patent US12560591B2, “Methods of treatment with CD8 T cell-mediated immune therapy” (Providence Health & Services—Oregon, priority 2019, dated 2026):
# System: CXCR3^+CD8^+ T cells in the tumor microenvironment
# Assay: Clinical trial NCT02688712: immunofluorescence of rectal tumor biopsies, baseline vs day 15
# Type: in vivo, human
# Conditions: rectal cancer patient biopsies, baseline vs day 15, FIG. 12D-E
# Excerpt: FIGS. 12A-12E are a series of panels showing TGFβ-mediated suppression of CXCR3-dependent CD8^+ T cell chemotaxis is relieved by LY2157299 in human patients with rectal cancer. […] FIG. 12B illustrates the clinical trial schema for a phase II clinical trial of rectal cancer patients and sample collection intervals. Patients receive two cycles of LY2157299 on days 1-14 and again on days 30-43 while receiving standard of care chemoradiation on days 15-57 prior to surgery. […] Patients are grouped by nodal status following neoadjuvant treatment (ypN). On the right, percent change in frequency of CXCR3^+CD3^+CD4^− T cells between days 1 and 15 is shown versus the neoadjuvant rectal (NAR) score. […] Each patient is shown (thin gray lines) along with the mean of all patients (thick black line). […]
# To determine the clinical relevance of our data, the expression of CXCR3 in human patients was interrogated. […] Therefore, the CD4^+ T cell panel was used and back gated on CD45^+CD3^+CD4^− T cells, the majority of which are CD8^+ T cells (on average 65% of CD45^+CD3^+CD4^− cells were CD8^+ T cells using the T effector and memory panel which has CD45, CD3, CD4, and CD8, but not CXCR3), and calculated CXCR3 expression. […] Therefore, forceps-biopsy specimens obtained by proctoscopy at baseline and day 15 were evaluated for alterations in CXCR3^+CD8^+ T cells.
smiles,measurement,value
Cc1cccc(-c2nn3c(c2-c2ccnc4ccc(C(N)=O)cc24)CCC3)n1 [LY2157299],percentage CXCR3^+CD8^+ T cells in the tumor microenvironment,increase in the percentage CXCR3^+CD8^+ T cells
